Source: PubChem BioAssay (NCI)
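Method: 48-hour compound exposure of cells in 96-well plates, five concentrations, linear interpolation of endpoints. Definition used: TGI = concentration required for complete inhibition of growth.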

How the values were obtained:
Assay in all cases: NCI-60 cell line screen, 48 h
[1] = tested on: 786-0 renal
[2] = tested on: A549 NSCLC
[3] = tested on: ACHN renal
[4] = tested on: CAKI-1 renal
[5] = tested on: CCRF-CEM leukemia
[6] = tested on: COLO 205 colon
[7] = tested on: DLD-1 colon
[8] = tested on: DMS 114 small cell lung
[9] = tested on: DMS 273 small cell lung
[10] = tested on: EKVX NSCLC
[11] = tested on: HCC-2998 colon
[12] = tested on: HCT-116 colon
[13] = tested on: HCT-15 colon
[14] = tested on: HL-60(TB) leukemia
[15] = tested on: HOP-62 NSCLC
[16] = tested on: HOP-92 NSCLC
[17] = tested on: HT29 colon
[18] = tested on: K-562 leukemia
[19] = tested on: KM12 colon
[20] = tested on: KM20L2 colon
[21] = tested on: LOX IMVI melanoma
[22] = tested on: LXFL 529 NSCLC
[23] = tested on: M14 melanoma
[24] = tested on: M19-MEL melanoma
[25] = tested on: MALME-3M melanoma
[26] = tested on: MOLT-4 leukemia
[27] = tested on: NCI-H226 lung
[28] = tested on: NCI-H23 lung
[29] = tested on: NCI-H460 lung
[30] = tested on: NCI-H522 lung
[31] = tested on: OVCAR-3 ovarian
[32] = tested on: OVCAR-4 ovarian
[33] = tested on: OVCAR-5 ovarian
[34] = tested on: OVCAR-8 ovarian
[35] = tested on: RPMI-8226 leukemia
[36] = tested on: RXF 393 renal
[37] = tested on: SF-268 CNS
[38] = tested on: SF-295 CNS
[39] = tested on: SF-539 CNS
[40] = tested on: SK-MEL-2 melanoma
[41] = tested on: SK-MEL-28 melanoma
[42] = tested on: SK-MEL-5 melanoma
[43] = tested on: SK-OV-3 ovarian
[44] = tested on: SN12C renal
[45] = tested on: SNB-19 CNS
[46] = tested on: SNB-75 CNS
[47] = tested on: SNB-78 CNS
[48] = tested on: SR leukemia
[49] = tested on: SW-620 colon
[50] = tested on: TK-10 renal
[51] = tested on: U251 CNS
[52] = tested on: UACC-257 melanoma
[53] = tested on: UACC-62 melanoma
[54] = tested on: UO-31 renal
[55] = tested on: XF 498 CNS
[56] = tested on: A498 renal
[57] = tested on: HOP-18 NSCLC
[58] = tested on: IGROV1 ovarian

Measured: TGI

N#C/C(=C/c1ccc[nH]1)P(=O)(O)O
not listed: [56] | [57] | [58]
> 100 µM: all other assays above

N/C(=C\c1ccc(OCc2ccccc2)c(OCc2ccccc2)c1[N+](=O)[O-])C(=O)O
not listed: [4] | [8] | [13] | [29] | [32] | [55]
> 100 µM: all other assays above
